Assay results as given in patent US20260265244A1, “HETEROCYCLIC COMPOUNDS AS STING ANTAGONISTS” (Boehringer Ingelheim International GmbH, priority 2022, published 2026).

Legend:
[1] = molecular target: T1, cGAMP binding domain of wild-type (GRR) human STING, residues 155-341 (Homo sapiens, UniProt Q86WV6, H232R); assay: Increase of stability of STING protein against thermal denaturation, Differential Scanning Fluorimetry (DSF)
T1 construct: His-TEV-hSTING (WT); TEV protease cleavage site (N); made in house; host or cells: E. coli BL21 DE3
Procedure: Dye fluorescence is quenched in aqueous environment and increases upon association of the dye with the hydrophobic parts of the unfolding protein. […] The inflection point of the curve represents the “melting” temperature of the protein (Tm) which is calculated numerically using the Boltzmann equation.
Method: The thermal stability of the STING protein was measured using a specific expression construct of the cGAMP binding domain of wild-type (GRR) human STING comprising residues 155-341 and a N-terminal 8×His-tag (SEQ ID NO: 3) in assay buffer containing 20 mM Tris, 150 mM NaCl at pH7.5.
The assay uses Hard-Shell® PCR Plates 384-Well CLR/WHT (Catalog #HSP3805, BIO-RAD), Microseal® ‘B’ Adhesive Seals for PCR Plates (Catalog #MSB-1001, BIO-RAD) and was run on a CFX384 Real-Time System (Bio-Rad).
A DMSO stock solution of SYPRO orange (SIGMA S5692-500UL) was prepared.
Compound stock solutions (10 mM in DMSO) were diluted 1:2 in DMSO to an intermediate compound concentration of 5 mM and then further diluted 1:40 in assay buffer resulting in a compound concentration of 125 μM and 2.5% DMSO.
Fluorescent dye stock solution (5000×SYPRO Orange) was then mixed with target protein and buffer to a concentration of 15 uM Protein and 25×SYPRO Orange. 2 ul of this protein-dye-mixture was added to 8 ul compound solution. Final volume was 10 uL. 3-6 well positions were used as negative control (protein with 2% DMSO). The plates were prepared for duplicate measurement and centrifuged for 2 min at 1000 g. In the measurement, 160 cycles of 0.5° C. were used (temperature ramp 15 s/cycle, 15° C. to 95° C.).
Final Assay concentrations for compound characterization were as follows: 100 uM compound, 3 uM target protein, 5×SYPRO Orange, 2% DMSO in 10 ul. All dispensing steps were performed using a HamiltonStar pipetting robot (Hamilton).
Dissociation curves were processed in Bio-Rad CFX Manager. Peak type was set to “negative”. Compound codes for screen were assigned in the plate layout.
Two replicates of TM measurements were averaged, and the standard deviation was calculated. In cases of SD>1.5° C. the measurement was repeated.
The melting point (Tm) obtained for STING protein alone was subtracted from T obtained for protein incubated with ligand to generate ΔTm values.
Protein production and purification: The protein used for the biophysical experiments was a recombinant human STING protein comprising its cytosolic ectodomain. A codon optimized DNA sequence (for expression in Escherichia coli) encoding amino acid residues 155 to 341 (Swiss Prot Q86WV6) of human STING (WT) was synthesized by GeneArt (Regensburg, Germany) and inserted into a pET17b E. coli expression vector. The protein construct encodes an N-terminal 8×His-tag (SEQ ID NO: 3) followed by tobacco etch virus protease (TEV) cleavage site and the above STING gene sequence. The resulting protein sequence for the used STING variant is listed below:
For expression of recombinant human STING above construct was transformed into E. coli BL21 DE3 strain and grown in shake flasks in LB-medium at 37° C. Expression was induced by addition of isopropyl β-D-1-thiogalactopyranoside to a final concentration of 1 mM and cultures shaken overnight. Cell pellets were centrifuged and stored at −70° C. until further use. Protein was purified by cell thawing in lysis buffer (20 mM TRIS-HCl, pH 8, 300 mM NaCl, 2 mM mercaptoethanol, 20 mM imidazole, Complete Protease Inhibitor (Roche) and DNase (Roche)), followed by metal affinity purification using Ni-NTA resins and elution buffer consisting of 20 mM TRIS-HCl, pH 8, 300 mM NaCl, 2 mM mercaptoethanol, 300 mM imidazole and size exclusion chromatography in running buffer (20 mM TRIS-HCl, pH 8, 100 mM NaCl, 2 mM DTT). The peak fraction was collected and concentrated to 2.5 mg/mL.

[2] = tested on: STING inhibition in human whole blood (IFNα2α production); assay: Human whole blood assay (HWBA): cGAMP-stimulated IFNα2α production; assay type: cell-based; conditions: Homo sapiens
Procedure: For the detection of STING inhibition in physiological environment human whole blood was stimulated by the cyclic dinucleotide cGAMP. Pathway activity was monitored by measuring the IFNα2α production.
Assay method: Compounds were delivered as 10 mM DMSO solution and serial diluted and transferred to the 96-well Cell culture Plate (Corning #3595), prefilled with 20 μl OptiMEM (Gibco #11058-021) in each well, using an Echo acoustic dispenser. Typically, 8 concentrations were used with the highest concentration at 10 μM in the final assay volume followed by ~1:5 dilution steps. DMSO concentration was set to 0.1% in the final assay volume. The 96 well assay plate contained 9 test compounds, a reference compound and DMSO in control wells.
Collection of human whole blood from 3 or more healthy donors (male or female, no medication for 7 days, exception contraceptive and thyroxine) as Na-citrate blood (e.g. 3.8% in Monovettes from Sarstedt) is conducted in parallel. Whole blood was kept at room temperature for a maximum of 3 hours after collection until use in the assay.
160 μl of the whole blood samples were transferred to each well of the 96-well assay plates filled with compound/OptiMEM. All assay plates are prepared as duplicates with blood from different donors. Blood plates were kept at room temperature for 60 minutes and continuous shaking with 450 rpm, covered with the lid, but not sealed.
A 10× cGAMP assay solution was diluted from a 2 mM stock solution in 1×HBSS immediately before use at room temperature. 20 μl of the 10× cGAMP/HBSS were added to all compound and all high control wells, whereas HBSS only was added to all low control wells.
After covering assay plates with aera seals and the lid, blood plates were kept at room temperature for 30 minutes and continuous shaking with 450 rpm, followed by an overnight incubation of 22 h at 37° C. in the incubator, without shaking.
For the detection of IFNα-2α in human plasma, the biotinylated capture antibody (Antibody set IFNA2, Meso Scale Diagnostics #B21VH-3, including coating and capture antibody) was diluted 1:17.5 in Diluent 100 (Meso Scale Diagnostics #R50AA-4, according to the manufacturer. U-Plex MSD GOLD 96-well Small Spot Streptavidin SECTOR Plates (Meso Scale Diagnostics #L45SA-5) were coated with 25 μl diluted capture antibody. Coated plates were incubated for 60 min at room temperature under continuous shaking at 700 rpm. MSD IFNα-2α plates were washed three times with 150 μl wash buffer (1×HBSS, 0.05% Tween).
After blocking the plates with 100 μl block solution/well (1×HBSS with 0.2% Tween, 2% BSA) for 60 min at room temperature and continuous shaking at 700 rpm, plates were emptied as dry as possible by dumping just before continuing with the human plasma. Whole Blood assay plates were centrifuged at 1600 rpm for 10 minutes. 25 μl of supernatant was transferred with a pipetting robotics from each whole blood plate to the corresponding IFNα-2α plate. Plates were sealed with microplate seals and kept at room temperature again under continuous shaking at 700 rpm for two hours. Next MSD IFNα-2α plates were washed three times with 150 μl wash buffer (1×HBSS, 0.05% Tween), before adding 25 μl MSD SULFO-TAG IFNα-2α Antibody solution (1:100 diluted in Diluent 3 (Meso Scale Diagnostics #R50AP-2) to each well of the plates. Afterwards plates were sealed with microplate seals and kept at room temperature again under continuous shaking at 700 rpm for two hours. Finally MSD IFNα-2α plates were washed three times with 150 μl wash buffer (1×HBSS, 0.05% Tween). 150 μl 2×Read buffer was added to each well and plates were immediately measured with the MSD Sector S600 Reader using the vendor barcode.
Data evaluation and calculation: For data evaluation and calculation, % control calculation of each well was based on the mean of high (cGAMP stimulated control) and mean of low (unstimulated control) controls by using the following formula: […]

STING = conditions: in vitro and in BLM-induced SSc mice; cited from earlier work

T1 sequence (Q86WV6 with tags, fused parts or gaps H232R): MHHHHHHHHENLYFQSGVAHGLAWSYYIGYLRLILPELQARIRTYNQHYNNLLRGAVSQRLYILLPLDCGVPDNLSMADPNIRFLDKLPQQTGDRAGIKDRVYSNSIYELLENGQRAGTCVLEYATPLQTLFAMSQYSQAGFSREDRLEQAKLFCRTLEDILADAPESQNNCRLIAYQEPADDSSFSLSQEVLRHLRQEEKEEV

DSF [1]	IC50 [2]	SMILES	fibrosis and vasculopathy (STING)
27 K	800 nM	Cn1cc2cc(-c3nc(-c4cccc5nn(C[C@H](O)c6ccc(OCc7ccccc7)cc6)cc45)c(C4CC4)n3C)c(C3CC3)nc2n1 [Example 4, (1R)-1-[4-(benzyloxy)phenyl]-2-[4-(5-cyclopropyl-2-{6-cyclopropyl-2-methyl-2H-pyrazolo[3,4-b]pyridin-5-yl}-1-methyl-1H-imidazol-4-yl)-2H-indazol-2-yl]ethan-1-ol]	–
–	61 nM	CCOc1nc2nn(C)cc2cc1-n1nc(-c2cccc3nn(C[C@H](O)c4ccccc4)cc23)c(C(C)C)c1C [Example 5, (1R)-2-[4-(1-{6-ethoxy-2-methyl-2H-pyrazolo[3,4-b]pyridin-5-yl}-5-methyl-4-(propan-2-yl)-1H-pyrazol-3-yl)-2H-indazol-2-yl]-1-phenylethan-1-ol]	–
30 K	70 nM	Cn1c(-c2cc3cn(CCCN4CCOCC4)nc3nc2C2CC2)nc(-c2cccc3nn(C[C@H](O)c4ccccc4)cc23)c1C1CC1 [Example 11, (1R)-2-[4-(5-cyclopropyl-2-{6-cyclopropyl-2-[3-(morpholin-4-yl)propyl]-2H-pyrazolo[3,4-b]pyridin-5-yl}-1-methyl-1H-imidazol-4-yl)-2H-indazol-2-yl]-1-phenylethan-1-ol]	–
27 K	110 nM	Cc1nc2nn(CC3COCCO3)cc2cc1-n1nc(-c2cccc3nn(C[C@H](O)c4ccccc4)cc23)c(C(C)C)c1C (stereo partly drawn) [Example 31, (1R)-2-[4-(1-{2-[(1,4-dioxan-2-yl)methyl]-6-methyl-2H-pyrazolo[3,4-b]pyridin-5-yl}-5-methyl-4-(propan-2-yl)-1H-pyrazol-3-yl)-2H-indazol-2-yl]-1-phenylethan-1-ol]	–
26 K	130 nM	COCCc1nc2nn(C)cc2cc1-n1nc(-c2cccc3nn(C[C@H](O)c4ccccc4)cc23)c(C(C)C)c1C [Example 38, (1R)-2-(4-{1-[6-(2-methoxyethyl)-2-methyl-2H-pyrazolo[3,4-b]pyridin-5-yl]-5-methyl-4-(propan-2-yl)-1H-pyrazol-3-yl}-2H-indazol-2-yl)-1-phenylethan-1-ol]	–
–	140 nM	Cc1nc2nn(CCCN(C)C)cc2cc1-n1nc(-c2cccc3nn(C[C@H](O)c4ccccc4)cc23)c(C(C)C)c1C [Example 43, (1R)-2-[4-(1-{2-[3-(dimethylamino)propyl]-6-methyl-2H-pyrazolo[3,4-b]pyridin-5-yl}-5-methyl-4-(propan-2-yl)-1H-pyrazol-3-yl)-2H-indazol-2-yl]-1-phenylethan-1-ol]	–
27 K	240 nM	COc1nc2nn(C)cc2cc1-n1nc(-c2cccc3nn(C[C@H](O)c4ccccc4)cc23)c(C(C)C)c1C [Example 59, (1R)-2-[4-(1-{6-methoxy-2-methyl-2H-pyrazolo[3,4-b]pyridin-5-yl}-5-methyl-4-(propan-2-yl)-1H-pyrazol-3-yl)-2H-indazol-2-yl]-1-phenylethan-1-ol]	–
30 K	270 nM	C=Cn1cc2cc(-c3nc(-c4cccc5nn(C[C@H](O)c6ccccc6)cc45)c(C4CC4)n3C)c(C3CC3)nc2n1 [Example 61, (1R)-2-[4-(5-cyclopropyl-2-{6-cyclopropyl-2-ethenyl-2H-pyrazolo[3,4-b]pyridin-5-yl}-1-methyl-1H-imidazol-4-yl)-2H-indazol-2-yl]-1-phenylethan-1-ol]	–
26 K	370 nM	Cc1c(C(C)C)c(-c2cccc3nn(C[C@H](O)c4ccccc4)cc23)nn1-c1cc2cn(C)nc2nc1OCCO [Example 71, 2-{[5-(3-{2-[(2R)-2-hydroxy-2-phenylethyl]-2H-indazol-4-yl}-5-methyl-4-(propan-2-yl)-1H-pyrazol-1-yl)-2-methyl-2H-pyrazolo[3,4-b]pyridin-6-yl]oxy}ethan-1-ol]	–
27 K	550 nM	Cc1nc2nn(CP(C)(C)=O)cc2cc1-n1nc(-c2cccc3nn(C[C@H](O)c4ccccc4)cc23)c(C(C)C)c1C [Example 77, (1R)-2-[4-(1-{2-[(dimethylphosphoryl)methyl]-6-methyl-2H-pyrazolo[3,4-b]pyridin-5-yl}-5-methyl-4-(propan-2-yl)-1H-pyrazol-3-yl)-2H-indazol-2-yl]-1-phenylethan-1-ol]	–
29 K	35 nM	Cc1nc2nn(CCC#N)cc2cc1-n1nc(-c2cccc3nn(C[C@H](O)c4ccccc4)cc23)c(C(C)C)c1C [Example 99]	–
–	–	CCc1ccc(NC(=O)Nc2c[nH]c3ccccc23)cc1 [Example H151]	ameliorated fibrosis and vasculopathy
